Test results from patent US20070287693A1, “Benzamide Derivatives That Act Upon The Glucokinase Enzyme” (priority 2004, published 2007).

Test: Plasma protein binding by equilibrium dialysis
Type: in vitro ADME
Conditions: rat plasma, 37° C., pH 7.4, read-out: % free in plasma
Experimental: 3) Measurements of Plasma Protein Binding of Compounds
The plasma protein binding of compounds was measured using the equilibrium dialysis technique (W. Lindner et al, J. Chromatography, 1996, 677, 1-28). Compound was dialysed at a concentration of 20 μM for 18 hours at 37° C. with plasma and isotonic phosphate buffer pH 7.4 (1 ml of each in the dialysis cell). A Spectrum® 20-cell equilibrium dialyser was used together with Teflon, semi-micro dialysis cells and Spectra/Por®2 membrane discs with a molecular weight cut off 12-14000 Dalton, 47 mm (supplied by PerBio Science UK Ltd, Tattenhall, Cheshire). Plasma and buffer samples are removed following dialysis and analysed using HPLCUV/MS (high performance liquid chromatography with UV and mass spec detection) to give the % free level in plasma. [drawing 39]

CC[C@@H](CO)Oc1cc(Oc2ccc(C(=O)N3CCC3)cc2)cc(C(=O)Nc2ccn(C)n2)c1 [Example 13, 3-[4-(azetidin-1-ylcarbonyl)phenoxy]-5-{[(1S)-1-(hydroxymethyl)propyl]oxy}-N-(1-methyl-1H-pyrazol-3-yl)benzamide]
fraction unbound at 18 h, 20 μM: 0.02
